The record followed here is patent US20190209576A1 (AI Therapeutics, Inc., priority 2014, published 2019).

Type in all cases: cell-based
In one experiment the test system is HCT-15 cells. Nature of the experiment: Cell viability (CellTiterGlo), single agent, 120 h. The note with it: Homo sapiens, HCT-15, BRAF WT, 5 day assay. As for the experimental part: (§1) For drug studies, HCT116, HT-29, RKO, HCT-15, SW1116, SW480 and SW620 cells were seeded at a density of 750, 8000, 300, 480, 1600, 2000, and 2000 cells per well, respectively, into 96 well plates in a final volume of 50 μL.
(§2) The apilimod used in these studies was apilimod dimesylate.
(§3) All drug dilutions were made up as a 2× stock and 50 μL added to appropriate wells. Cells were treated for 120 h before viability was assessed using CellTiterGlo® (Promega) where the relative luminescence of untreated cells was set to 100% viability and each drug concentration expressed as a percentage of untreated cells. EC50 values were determined using GraphPad Prism (GraphPad Software, Inc). Briefly, raw data was log transformed and then analyzed using nonlinear regression (curve fit) where the data were constrained (bottom=0, top=100).
In general terms: In ATP-based viability assays light output follows the ATP content of the culture.

The next experiment relates to HCT116 cells. Nature of the experiment: Cell viability (CellTiterGlo), single agent, 120 h. The note with it: Homo sapiens, HCT-116, 120 h; HCT116, BRAF WT, 5 day assay. On the procedure:
as §1, §2, §3

A further experiment concerns HT-29 cells. Nature of the experiment: Cell viability (CellTiterGlo), single agent, 120 h. The note with it: Homo sapiens, HT-29, BRAF Mutant (V600E), 5 day assay. On the procedure: as §1, §2, §3
The subject of another experiment is RKO cells. Description: Cell viability (CellTiterGlo), single agent, 120 h. Conditions: Homo sapiens, BRAF Mutant (V600E), 5 day assay. On the procedure: as §1, §2, §3
A further experiment relates to SW1116 cells. Description: Cell viability (CellTiterGlo), single agent, 120 h. Conditions: Homo sapiens, SW 1116, 120 h; SW1116, BRAF WT, 5 day assay. On the procedure:
as §1, §2, §3

A further experiment deals with SW480 cells. Nature of the experiment: Cell viability (CellTiterGlo), single agent, 120 h. Conditions: Homo sapiens, SW480, BRAF WT, 5 day assay. As for the experimental part:
as §1, §2, §3

A further experiment deals with SW620 cells. Nature of the experiment: Cell viability (CellTiterGlo), single agent, 120 h. Conditions: Homo sapiens, SW-620, 120 h; SW620, BRAF WT, 5 day assay. As for the experimental part: as §1, §2, §3
For the next experiment, the system named is colon cancer cell lines. Nature of the experiment: LAM-002 sensitivity (EC90) correlated with SNX10 expression. Conditions: 10 point dose response. An excerpt: Expression profiles were obtained from the public databases CCLE (Barretina, Caponigro, Stransky et al. The Cancer Cell Line Encyclopedia enables predictive modelling of anticancer drug sensitivity. Nature. 2012 Mar. 28; 483(7391):603-7) and COSMIC (Forbes SA1, Beare D2, Gunasekaran P2, et al. COSMIC: exploring the world's knowledge of somatic mutations in human cancer. Nucleic Acids Res. 2015 January; 43 (Database issue):D805-11). R statistical package (R Development Core Team (2008). R: A language and environment for statistical computing. R Foundation for Statistical Computing, Vienna, Austria. ISBN 3-900051-07-0) was used for the normalization of expression and the correlation analysis.
To determine LAM-002 sensitivity in colon cancer cell lines, the EC90 was calculated using a 10 point dose response as described above for EC50 determination. […] These findings support SNX10 expression as a predictive biomarker for LAM-002 sensitivity in colon cancer cells.

Structures are written as SMILES.

With `Cc1cccc(/C=N/Nc2cc(N3CCOCC3)nc(OCCc3ccccn3)n2)c1` [Apilimod], the EC50 amounted to 15 nM in the experiment with HCT-15 cells; 10 nM with HCT116 cells; 19 nM with HT-29 cells; 52 nM with RKO cells; 12 nM in the experiment with SW1116 cells; 24 nM in the experiment on SW480 cells. Moreover, in the experiment with SW620 cells, the EC50 worked out at 9 nM. Besides, the “correlation between SNX10 expression and LAM-002 sensitivity (EC90)” value in the experiment on colon cancer cell lines is reported as “colon cancer cells expressing higher levels of SNX10 are the most sensitive to LAM-002”.

The term EC50 denotes the concentration giving half of the maximal effect. A high value points to a need for much substance.
